Literature values in patent publication US20070043208A1, “Crystal structure of erythrocyte binding domain of EBA-175” (priority 2003, published 2007).

System: P. falciparum
Settings: DNA plasmid prime and recombinant protein boost regimen

RII: 73 kDa erythrocyte-binding domain (616 amino acid fragment) of P. falciparum EBA-175
monkeys protected from P. falciparum challenge: 3 of 4
